Experimental data as given in the NIST ThermoML archive (doi:10.1021/je0504360).
± gives the expanded uncertainty stated by the source.

Key:
[1] = Molar enthalpy of transition or fusion; details: Crystal; DSC
[2] = Crystal; DTA

With `COc1ccc2cc3[n+](cc2c1OC)CCc1cc2c(cc1-3)OCO2.[Cl-]` the “Molar enthalpy of transition or fusion” value [1] was 39.9 ± 0.89 kJ/mol and the Normal melting temperature [2] was 200.1 ± 1.1 °C.
